Literature values in patent US12640239B2, “Functional biomarkers for statin therapy in age-related macular degeneration (AMD)” (APELIOTUS TECHNOLOGIES, INC., priority 2017, dated 2026).

Tested on: older adults with normal retinal health or AMD
Settings: 30-day course of 50,000 international units of oral retinol, cited from earlier work

## CC1=C(/C=C/C(C)=C/C=C/C(C)=C/CO)C(C)(C)CCC1 [retinol]
30-day follow-up, 52 per group
  Dark adaptation vs placebo group: significantly faster dark adaptation than the placebo group
30-day follow-up
  Visual acuity vs placebo group: no difference in visual acuity between the groups
After an additional 30-day washout period
  Improvement in dark adaptation after washout: reversed to the baseline level
